Laboratory results taken from article PMC5218480 (PLoS ONE, 2017).

Test system: MV-4-11 cells
Test: Gene expression microarray analysis (Affymetrix PrimeView) and GSEA
Assay type: cell-based, human
Design: RFU PODN (11730768_x_at) / Fold change /veh PODN (11730768_x_at) / RFU LINC00158 (11744669_a_at) / Fold change /veh LINC00158 (11744669_a_at) / RFU DUSP10 (11751237_a_at) / Fold change /veh DUSP10 (11751237_a_at) / RFU ID3 (11757404_x_at) / Fold change /veh ID3 (11757404_x_at) / RFU PLEKHG5 (11737974_s_at) / Fold change /veh PLEKHG5 (11737974_s_at) / RFU LRRC4B (11730491_at) / Fold change /veh LRRC4B (11730491_at) / RFU GIMAP4 (11747438_a_at) / Fold change /veh GIMAP4 (11747438_a_at) / RFU KRT8 (11758183_x_at) / Fold change /veh KRT8 (11758183_x_at) / RFU CNN1 (11734310_a_at) / Fold change /veh CNN1 (11734310_a_at) / RFU VPS37D (11726825_at) / Fold change /veh VPS37D (11726825_at) / RFU C10orf10 (11716522_x_at) / Fold change /veh C10orf10 (11716522_x_at) / RFU KIR2DL2 /// KIR2DL4 /// KIR2DL5A /// KIR2DL5B /// KIR2DS1 /// KIR2DS2 /// KIR2DS3 /// KIR2DS4 /// KIR3DL3 /// KIR3DL3 /// KIR3DS1 (11738374_at) / Fold change /veh KIR2DL2 /// KIR2DL4 /// KIR2DL5A /// KIR2DL5B /// KIR2DS1 /// KIR2DS2 /// KIR2DS3 /// KIR2DS4 /// KIR3DL3 /// KIR3DL3 /// KIR3DS1 (11738374_at) / RFU C1QL1 (11718748_at) / Fold change /veh C1QL1 (11718748_at) / RFU TMPRSS4 (11747572_a_at) / Fold change /veh TMPRSS4 (11747572_a_at) / RFU HAMP (11756126_x_at) / Fold change /veh HAMP (11756126_x_at) / RFU RNFT2 (11725882_a_at) / Fold change /veh RNFT2 (11725882_a_at) / RFU NR4A2 (11747474_a_at) / Fold change /veh NR4A2 (11747474_a_at) / RFU ABCC12 (11746883_a_at) / Fold change /veh ABCC12 (11746883_a_at) / RFU TMEM136 (11760407_x_at) / Fold change /veh TMEM136 (11760407_x_at) / RFU CLDN22 /// WWC2 (11732394_at) / Fold change /veh CLDN22 /// WWC2 (11732394_at) / RFU HLA-DPB1 (11760878_x_at) / Fold change /veh HLA-DPB1 (11760878_x_at) / RFU SPINT1 (11716480_a_at) / Fold change /veh SPINT1 (11716480_a_at) / RFU GAP43 (11754022_s_at) / Fold change /veh GAP43 (11754022_s_at) / RFU A4GNT (11735810_at) / Fold change /veh A4GNT (11735810_at) / RFU PRB3 (11715151_x_at) / Fold change /veh PRB3 (11715151_x_at) / RFU TUBB4B (11761932_at) / Fold change /veh TUBB4B (11761932_at) / RFU CAPN14 (11732068_a_at) / Fold change /veh CAPN14 (11732068_a_at) / RFU TMCC2 (11721928_a_at) / Fold change /veh TMCC2 (11721928_a_at) / RFU IRGQ (11745062_a_at) / Fold change /veh IRGQ (11745062_a_at) / RFU FAM174B (11720279_a_at) / Fold change /veh FAM174B (11720279_a_at) / RFU TMPRSS4 (11748680_a_at) / Fold change /veh TMPRSS4 (11748680_a_at) / RFU FAM212B (11763350_a_at) / Fold change /veh FAM212B (11763350_a_at) / RFU PLEKHG5 (11743358_a_at) / Fold change /veh PLEKHG5 (11743358_a_at) / RFU ZSCAN30 (11745921_a_at) / Fold change /veh ZSCAN30 (11745921_a_at) / RFU CMKLR1 (11741424_a_at) / Fold change /veh CMKLR1 (11741424_a_at) / RFU LOC101060620 /// MAPK8IP1 (11723275_at) / Fold change /veh LOC101060620 /// MAPK8IP1 (11723275_at) / RFU SPTSSB (11747773_x_at) / Fold change /veh SPTSSB (11747773_x_at) / RFU PRSS12 (11739890_at) / Fold change /veh PRSS12 (11739890_at) / RFU BIN1 (11741810_x_at) / Fold change /veh BIN1 (11741810_x_at) / RFU WNT11 (11732464_a_at) / Fold change /veh WNT11 (11732464_a_at) / RFU C10orf10 (11716521_a_at) / Fold change /veh C10orf10 (11716521_a_at) / RFU C5orf56 (11738089_at) / Fold change /veh C5orf56 (11738089_at) / RFU CYB561 (11721691_x_at) / Fold change /veh CYB561 (11721691_x_at) / RFU ANKRD19P (11752326_a_at) / Fold change /veh ANKRD19P (11752326_a_at) / RFU OR2T12 /// OR2T33 /// OR2T8 (11738714_s_at) / Fold change /veh OR2T12 /// OR2T33 /// OR2T8 (11738714_s_at) / RFU VCAN (11748164_a_at) / Fold change /veh VCAN (11748164_a_at) / RFU JSRP1 (11732532_at) / Fold change /veh JSRP1 (11732532_at) / RFU KRTAP10-11 (11738290_x_at) / Fold change /veh KRTAP10-11 (11738290_x_at) / RFU MYO3A (11730013_a_at) / Fold change /veh MYO3A (11730013_a_at) / RFU EBF3 (11725865_a_at) / Fold change /veh EBF3 (11725865_a_at) / RFU CAMK2N1 (11719241_x_at) / Fold change /veh CAMK2N1 (11719241_x_at) / RFU C5orf56 (11738088_a_at) / Fold change /veh C5orf56 (11738088_a_at) / RFU OLFML3 (11715873_a_at) / Fold change /veh OLFML3 (11715873_a_at) / RFU LOC100653217 /// NTM (11731650_a_at) / Fold change /veh LOC100653217 /// NTM (11731650_a_at) / RFU MAPK11 (11762145_a_at) / Fold change /veh MAPK11 (11762145_a_at) / RFU FIZ1 (11724087_x_at) / Fold change /veh FIZ1 (11724087_x_at) / RFU OASL (11726364_x_at) / Fold change /veh OASL (11726364_x_at) / RFU SOX15 (11748057_x_at) / Fold change /veh SOX15 (11748057_x_at) / RFU CD79A (11719716_a_at) / Fold change /veh CD79A (11719716_a_at) / RFU HIST1H1D (11736915_at) / Fold change /veh HIST1H1D (11736915_at) / RFU CASKIN2 (11723855_a_at) / Fold change /veh CASKIN2 (11723855_a_at) / RFU LOC730098 (11760151_x_at) / Fold change /veh LOC730098 (11760151_x_at) / RFU OR4N2 (11742367_at) / Fold change /veh OR4N2 (11742367_at) / RFU PRRT2 (11749266_a_at) / Fold change /veh PRRT2 (11749266_a_at) / RFU SNX32 (11753110_a_at) / Fold change /veh SNX32 (11753110_a_at) / RFU CDHR5 (11726645_a_at) / Fold change /veh CDHR5 (11726645_a_at) / RFU RCAN1 (11760418_a_at) / Fold change /veh RCAN1 (11760418_a_at) / RFU FAM167A (11723789_a_at) / Fold change /veh FAM167A (11723789_a_at) / RFU FAM26E (11764081_at) / Fold change /veh FAM26E (11764081_at) / RFU ISYNA1 (11749810_s_at) / Fold change /veh ISYNA1 (11749810_s_at) / RFU ACY1 (11761880_at) / Fold change /veh ACY1 (11761880_at) / RFU 11764098_at / Fold change /veh 11764098_at / RFU SAMD14 (11745864_x_at) / Fold change /veh SAMD14 (11745864_x_at) / RFU NPB (11741838_a_at) / Fold change /veh NPB (11741838_a_at) / RFU TMPRSS6 (11731388_a_at) / Fold change /veh TMPRSS6 (11731388_a_at) / RFU KRTAP10-2 (11738614_at) / Fold change /veh KRTAP10-2 (11738614_at) / RFU ARHGAP8 /// PRR5-ARHGAP8 (11727945_x_at) / Fold change /veh ARHGAP8 /// PRR5-ARHGAP8 (11727945_x_at) / RFU KRTAP5-7 /// NADSYN1 (11734609_at) / Fold change /veh KRTAP5-7 /// NADSYN1 (11734609_at) / RFU RASL12 (11751679_a_at) / Fold change /veh RASL12 (11751679_a_at) / RFU CDKN2B (11736163_a_at) / Fold change /veh CDKN2B (11736163_a_at) / RFU PRF1 (11729649_at) / Fold change /veh PRF1 (11729649_at) / RFU, ZNF638 /// ZNF638-IT1 / Fold change vs veh, ZNF638 /// ZNF638-IT1 / RFU, PANK3 / Fold change vs veh, PANK3 / RFU, SH3YL1 / Fold change vs veh, SH3YL1 / RFU, ZEB2 / Fold change vs veh, ZEB2 / RFU, NRIP1 / Fold change vs veh, NRIP1 / RFU, PTTG1IP / Fold change vs veh, PTTG1IP / RFU, CAPN2 / Fold change vs veh, CAPN2 / RFU, MED14 / Fold change vs veh, MED14 / RFU, SNORA58 / Fold change vs veh, SNORA58 / RFU, C1orf63 / Fold change vs veh, C1orf63 / RFU, LRRFIP1 / Fold change vs veh, LRRFIP1 / RFU, NDUFAF7 / Fold change vs veh, NDUFAF7 / RFU, SLC12A2 / Fold change vs veh, SLC12A2 / RFU, IBTK / Fold change vs veh, IBTK / RFU, ESF1 / Fold change vs veh, ESF1 / Fold change vs veh, TMEM50B / RFU, TAOK1 / Fold change vs veh, TAOK1 / RFU, ACBD3 / Fold change vs veh, ACBD3 / RFU, TMA16 / Fold change vs veh, TMA16 / RFU, RWDD3 / Fold change vs veh, RWDD3 / RFU, BCAT1 / Fold change vs veh, BCAT1 / RFU, EDEM3 / Fold change vs veh, EDEM3 / RFU, TMEM33 / Fold change vs veh, TMEM33 / RFU, WDR75 / Fold change vs veh, WDR75 / RFU, AHCTF1 / Fold change vs veh, AHCTF1 / RFU, TFRC / Fold change vs veh, TFRC / RFU, ZDHHC17 / Fold change vs veh, ZDHHC17 / RFU, NOM1 / Fold change vs veh, NOM1 / RFU, ARL8B / Fold change vs veh, ARL8B / RFU, ZBTB11 / Fold change vs veh, ZBTB11 / RFU, TAMM41 / Fold change vs veh, TAMM41 / RFU, KIAA1704 /// LOC100996395 / Fold change vs veh, KIAA1704 /// LOC100996395 / RFU, ING1 / Fold change vs veh, ING1 / RFU, TRMT61B / Fold change vs veh, TRMT61B / RFU, FUBP3 / Fold change vs veh, FUBP3 / RFU, TP53 / Fold change vs veh, TP53 / RFU, TNKS2 / Fold change vs veh, TNKS2 / RFU, ZFP14 / Fold change vs veh, ZFP14 / RFU, ACTR2 / Fold change vs veh, ACTR2 / RFU, PPP3R1 / Fold change vs veh, PPP3R1 / RFU, PIK3R1 / Fold change vs veh, PIK3R1 / RFU, HNRNPA1 / Fold change vs veh, HNRNPA1 / RFU, RNF170 / Fold change vs veh, RNF170 / RFU, ZNF28 / Fold change vs veh, ZNF28 / RFU, RNGTT / Fold change vs veh, RNGTT / RFU, OGT / Fold change vs veh, OGT / RFU, BRD1 / Fold change vs veh, BRD1 / RFU, MARS / Fold change vs veh, MARS / RFU, ZNF655 / Fold change vs veh, ZNF655 / RFU, FAHD1 / Fold change vs veh, FAHD1 / RFU, BDP1 / Fold change vs veh, BDP1 / RFU, LRRCC1 / Fold change vs veh, LRRCC1 / RFU, ARID1A / Fold change vs veh, ARID1A / RFU, ZNF146 / Fold change vs veh, ZNF146 / RFU, ZNF330 / Fold change vs veh, ZNF330 / RFU, GPN3 / Fold change vs veh, GPN3 / RFU, C9orf123 / Fold change vs veh, C9orf123 / RFU, N4BP2L2 / Fold change vs veh, N4BP2L2 / RFU, ARFIP1 / Fold change vs veh, ARFIP1 / RFU, FAM179B / Fold change vs veh, FAM179B / RFU, BCL10 / Fold change vs veh, BCL10 / RFU, UHRF1BP1L / Fold change vs veh, UHRF1BP1L / RFU, BET1 / Fold change vs veh, BET1 / RFU, CNOT2 / Fold change vs veh, CNOT2 / RFU, ZNF268 / Fold change vs veh, ZNF268 / Fold change vs veh, ZNF507 / RFU, DGCR2 / Fold change vs veh, DGCR2 / RFU, WDSUB1 / Fold change vs veh, WDSUB1 / Fold change vs veh, HSP90B1 /// MIR3652 / RFU, ADSS / Fold change vs veh, ADSS / RFU, GK / Fold change vs veh, GK / RFU, ZNF148 / Fold change vs veh, ZNF148 / RFU, TAF9 / Fold change vs veh, TAF9 / RFU, SLC1A5 / Fold change vs veh, SLC1A5 / RFU, SLMO2 / Fold change vs veh, SLMO2 / RFU, ABCC4 / Fold change vs veh, ABCC4 / RFU, LOC101060439 /// RAP1B / Fold change vs veh, LOC101060439 /// RAP1B / RFU, RFX7 / Fold change vs veh, RFX7 / RFU, GTPBP10 / Fold change vs veh, GTPBP10 / RFU, CNEP1R1 / Fold change vs veh, CNEP1R1 / RFU, BIVM-ERCC5 /// ERCC5 / Fold change vs veh, BIVM-ERCC5 /// ERCC5 / RFU, ILF3 / Fold change vs veh, ILF3 / RFU 11762660_at / Fold change /veh 11762660_at / RFU VCAN (11757783_s_at) / Fold change /veh VCAN (11757783_s_at) / RFU DDX43 (11728927_at) / Fold change /veh DDX43 (11728927_at) / RFU KRT8 (11758188_x_at) / Fold change /veh KRT8 (11758188_x_at) / RFU NKD1 (11759106_at) / Fold change /veh NKD1 (11759106_at) / RFU SRD5A1 (11742802_a_at) / Fold change /veh SRD5A1 (11742802_a_at) / RFU TPSAB1 /// TPSB2 (11721975_s_at) / Fold change /veh TPSAB1 /// TPSB2 (11721975_s_at) / RFU GSTM3 (11746129_a_at) / Fold change /veh GSTM3 (11746129_a_at) / RFU IL23R (11737362_x_at) / Fold change /veh IL23R (11737362_x_at) / RFU TMEM51 (11727254_a_at) / Fold change /veh TMEM51 (11727254_a_at) / RFU PIWIL2 (11732686_x_at) / Fold change /veh PIWIL2 (11732686_x_at) / RFU ORM1 (11744905_x_at) / Fold change /veh ORM1 (11744905_x_at) / RFU CCDC152 (11743942_at) / Fold change /veh CCDC152 (11743942_at) / RFU ECM1 (11717891_a_at) / Fold change /veh ECM1 (11717891_a_at) / RFU IL23R (11748794_a_at) / Fold change /veh IL23R (11748794_a_at) / RFU TNFAIP8L3 (11732012_x_at) / Fold change /veh TNFAIP8L3 (11732012_x_at) / RFU MBOAT4 (11741988_at) / Fold change /veh MBOAT4 (11741988_at) / RFU 11764193_at / Fold change /veh 11764193_at / RFU TMEM53 (11763286_at) / Fold change /veh TMEM53 (11763286_at) / RFU MAGEB2 (11727129_at) / Fold change /veh MAGEB2 (11727129_at) / RFU TMEM200A (11744735_a_at) / Fold change /veh TMEM200A (11744735_a_at) / RFU CCDC152 (11751479_a_at) / Fold change /veh CCDC152 (11751479_a_at) / RFU FAM211A (11726209_a_at) / Fold change /veh FAM211A (11726209_a_at) / RFU RGS16 (11746705_a_at) / Fold change /veh RGS16 (11746705_a_at) / RFU VCAN (11755009_s_at) / Fold change /veh VCAN (11755009_s_at) / RFU RHOB (11743442_s_at) / Fold change /veh RHOB (11743442_s_at) / RFU RGS16 (11720943_a_at) / Fold change /veh RGS16 (11720943_a_at) / RFU RGS16 (11720944_at) / Fold change /veh RGS16 (11720944_at) / RFU, VPS4B / Fold change vs veh, VPS4B / RFU, CREB1 / Fold change vs veh, CREB1 / RFU, DNAJC13 / Fold change vs veh, DNAJC13 / RFU, GNAQ / Fold change vs veh, GNAQ / RFU, CDK5R1 / Fold change vs veh, CDK5R1 / RFU, ZRANB3 / Fold change vs veh, ZRANB3 / RFU, CUL4A / Fold change vs veh, CUL4A / RFU, CCNY / Fold change vs veh, CCNY / RFU, UFL1 / Fold change vs veh, UFL1 / RFU, COG3 / Fold change vs veh, COG3 / RFU, DIAPH2 / Fold change vs veh, DIAPH2 / RFU, SKA2 / Fold change vs veh, SKA2 / RFU, AFF3 / Fold change vs veh, AFF3 / RFU, LMF1 / Fold change vs veh, LMF1 / RFU, IPO11 / Fold change vs veh, IPO11 / RFU, DFFB / Fold change vs veh, DFFB / RFU, FOXP1 / Fold change vs veh, FOXP1 / RFU, CARD8 / Fold change vs veh, CARD8 / RFU, STRN3 / Fold change vs veh, STRN3 / RFU, ADK / Fold change vs veh, ADK / RFU, RASSF2 / Fold change vs veh, RASSF2 / RFU, WIPF1 / Fold change vs veh, WIPF1 / RFU, LARP1B / Fold change vs veh, LARP1B / RFU, RASA1 / Fold change vs veh, RASA1 / RFU, RB1 / Fold change vs veh, RB1 / RFU, PPFIA1 / Fold change vs veh, PPFIA1 / RFU, MAT2A / Fold change vs veh, MAT2A / RFU, CCT5 / Fold change vs veh, CCT5 / RFU, WDR92 / Fold change vs veh, WDR92 / RFU, CUX1 / Fold change vs veh, CUX1 / RFU, TTC7A / Fold change vs veh, TTC7A / RFU, TMEM135 / Fold change vs veh, TMEM135 / RFU, DEPTOR / Fold change vs veh, DEPTOR / RFU, CPM / Fold change vs veh, CPM / RFU, DNAJB6 / Fold change vs veh, DNAJB6 / RFU, CACNA2D3 / Fold change vs veh, CACNA2D3 / RFU, DTX4 / Fold change vs veh, DTX4 / RFU, TFCP2 / Fold change vs veh, TFCP2 / RFU, GMCL1 /// GMCL1P1 / Fold change vs veh, GMCL1 /// GMCL1P1 / RFU, AEBP2 / Fold change vs veh, AEBP2 / RFU, SNHG1 /// SNORD22 /// SNORD25 /// SNORD26 /// SNORD27 /// SNORD28 /// SNORD29 /// SNORD31 / Fold change vs veh, SNHG1 /// SNORD22 /// SNORD25 /// SNORD26 /// SNORD27 /// SNORD28 /// SNORD29 /// SNORD31 / Fold change (Aza/veh), C12orf56 (ProbeSet 11735607_a_at) / Fold change (ACY-1035/veh), C12orf56 (ProbeSet 11735607_a_at) / Fold change (Aza/veh), FGFR1OP (ProbeSet 11751329_s_at) / Fold change (ACY-1035/veh), FGFR1OP (ProbeSet 11751329_s_at) / Fold change (Aza/veh), VPS36 (ProbeSet 11739960_a_at) / Fold change (ACY-1035/veh), VPS36 (ProbeSet 11739960_a_at) / RFU SYPL1 (11715823_x_at) / Fold change /veh SYPL1 (11715823_x_at) / RFU IGFBP7 (11715501_s_at) / Fold change /veh IGFBP7 (11715501_s_at) / RFU REEP3 (11722064_at) / Fold change /veh REEP3 (11722064_at) / RFU IGLL1 (11728026_x_at) / Fold change /veh IGLL1 (11728026_x_at): dose or concentration left out as unconfirmed
Settings: ProbeSet 11739106_a_at; LIST B

For `Nc1ncn([C@@H]2O[C@H](CO)[C@@H](O)[C@H]2O)c(=O)n1` [azacitidine], which “Fold change vs veh, TMEM33” value is on record?
Its value is 0.88.
